{"source": "patent US20040034021A1", "about": "“Intravenous rifalazil formulation and methods of use thereof” (priority 2002, published 2004)", "key": {"[1]": {"experiment": "solubility of rifalazil in aqueous test solutions (UV-Vis)", "type": "physicochemical", "description": "In order to determine its solubility, to a vial containing solid rifalazil was added a volume of aqueous test solution. The vial was capped and sonicated for about an hour and the remaining undissolved solids were left to settle overnight. The vial was then vortexed for 1 minute, sonicated for another 30 minutes, and centrifuged for 1 hour at 3500 RPM. The supernatent was separated from undissolved rifalazil. The concentration of rifalazil in the test solution was determined by UV-Vis absorbance using a suitable spectrophotometer. Using this method, the solubility of rifalazil was determined as a function of pH (see FIG. 1); in PEG 400-water, propylene glycol-water, and ethanol-water mixtures (see FIG. 2); in Tween-40-water and Tween-80-water mixtures (see FIG. 3); in dodecyltrimethylammonium bromide-water, sodium chenodeoxycholate-water, sodium Octylsulfate-water, sodium deoxycholate-water, sodium cholate-water, and sodium dodecylsulfate-water mixtures (see FIG. 4); in sodium dodecylsulfate- water mixtures at pH 5.4 and 7.4 (see FIG. 5); and in PEG-35 castor oil-water mixtures (see FIG. 6)."}, "S. aureus": {"test_system": "S. aureus", "experiment": "MIC by broth microdilution method", "type": "cell-based", "conditions": "Staphylococcus aureus, CAMH broth, vehicle as in Example 2, 35-37° C., 20-24 hours", "description": "The MIC (minimum inhibitory concentration) of rifalazil against S. aureus was determined by the broth microdilution method. A vehicle prepared as described in Example 2 was diluted in Cation Adjusted Mueller-Hinton (CAMH) broth to create working solutions that were 4× the maximum concentration to be tested on each microtiter plate. The 4× working solutions were added to the wells of the 96 well microtiter plate and serially diluted two-fold across 11 wells into CAMH.\nTo prepare the test strain inoculum, 3-5 colonies of S. aureus from a pure 18-24 hour culture grown on a primary agar plate were emulsified into demineralized water and adjusted to a 0.5 McFarland turbidity standard using a calibrated nephelometer. This suspension was then diluted further (1:100) into CAMH broth to yield an inoculum suspension containing approximately 10^6 CFU/ml. Aliquots of the inoculum suspension were added to the rifalazil-containing wells to yield a final concentration in the well of 1-8×10^5 CFU/ml. The microtiter plates were incubated at 35-37° C. for 20-24 hours. The MIC was read as the lowest concentration of the compound that inhibits visible growth."}, "[2]": {"experiment": "stability against hydrolytic degradation to des-acetyl rifalazil (HPLC)", "type": "physicochemical", "description": "Rifalazil solutions containing the micelle-forming excipient PEG-35 castor oil, prepared as described in Example 2, and without a micelle-forming excipient (15% ethanol, phosphate buffer pH=7.6, 0.9% NaCl) were monitored for stability against the hydrolytic degradation of rifalazil at temperatures of 25° C., 40° C., 50° C., and 60° C. (see FIGS. 7 and 8). The degradation was monitored for several days by HPLC for the disappearance of rifalazil or the appearance of des-acetyl rifalazil, the degradation product that results from the hydrolysis of rifalazil."}}, "data": [{"smiles": "CO[C@H]1/C=C/O[C@@]2(C)Oc3c(C)c(O)c4c(=O)c(c5oc6cc(N7CCN(CC(C)C)CC7)cc(O)c6nc-5c4c3C2=O)NC(=O)/C(C)=C\\C=C\\[C@H](C)[C@H](O)[C@@H](C)[C@@H](O)[C@@H](C)[C@H](OC(C)=O)[C@@H]1C", "note": "[Rifalazil, rifalazil]", "values": [{"measurement": "ratio of 100 μg/mL (typical low IV dosage concentration) to solubility of the drug in water", "setting": "[1]; water at pH 7 (FIG. 1)", "result": "5,000 times"}, {"measurement": "solubility in water", "setting": "[1]; water at physiological pH", "result": "virtually insoluble"}, {"measurement": "MIC", "setting": "S. aureus", "result": 0.015, "unit": "µg/mL"}, {"measurement": "effect of micelle-forming excipient on hydrolytic degradation of rifalazil", "setting": "[2]; PEG-35 castor oil solution of Example 2 vs 15% ethanol, phosphate buffer pH 7.6, 0.9% NaCl, 25-60° C. (FIGS. 7 and 8)", "result": "inhibits the hydrolytic degradation"}, {"measurement": "hydrolytic degradation of rifalazil", "setting": "[2]; aqueous environments under ambient conditions, no micelle-forming excipient (FIG. 8)", "result": "occurs readily"}]}]}
